pIC50: −log10 of the molar value.
The compounds below were run against EGFR (UniProt P00533).
Sequence of EGFR (P00533 whole entry, looked up): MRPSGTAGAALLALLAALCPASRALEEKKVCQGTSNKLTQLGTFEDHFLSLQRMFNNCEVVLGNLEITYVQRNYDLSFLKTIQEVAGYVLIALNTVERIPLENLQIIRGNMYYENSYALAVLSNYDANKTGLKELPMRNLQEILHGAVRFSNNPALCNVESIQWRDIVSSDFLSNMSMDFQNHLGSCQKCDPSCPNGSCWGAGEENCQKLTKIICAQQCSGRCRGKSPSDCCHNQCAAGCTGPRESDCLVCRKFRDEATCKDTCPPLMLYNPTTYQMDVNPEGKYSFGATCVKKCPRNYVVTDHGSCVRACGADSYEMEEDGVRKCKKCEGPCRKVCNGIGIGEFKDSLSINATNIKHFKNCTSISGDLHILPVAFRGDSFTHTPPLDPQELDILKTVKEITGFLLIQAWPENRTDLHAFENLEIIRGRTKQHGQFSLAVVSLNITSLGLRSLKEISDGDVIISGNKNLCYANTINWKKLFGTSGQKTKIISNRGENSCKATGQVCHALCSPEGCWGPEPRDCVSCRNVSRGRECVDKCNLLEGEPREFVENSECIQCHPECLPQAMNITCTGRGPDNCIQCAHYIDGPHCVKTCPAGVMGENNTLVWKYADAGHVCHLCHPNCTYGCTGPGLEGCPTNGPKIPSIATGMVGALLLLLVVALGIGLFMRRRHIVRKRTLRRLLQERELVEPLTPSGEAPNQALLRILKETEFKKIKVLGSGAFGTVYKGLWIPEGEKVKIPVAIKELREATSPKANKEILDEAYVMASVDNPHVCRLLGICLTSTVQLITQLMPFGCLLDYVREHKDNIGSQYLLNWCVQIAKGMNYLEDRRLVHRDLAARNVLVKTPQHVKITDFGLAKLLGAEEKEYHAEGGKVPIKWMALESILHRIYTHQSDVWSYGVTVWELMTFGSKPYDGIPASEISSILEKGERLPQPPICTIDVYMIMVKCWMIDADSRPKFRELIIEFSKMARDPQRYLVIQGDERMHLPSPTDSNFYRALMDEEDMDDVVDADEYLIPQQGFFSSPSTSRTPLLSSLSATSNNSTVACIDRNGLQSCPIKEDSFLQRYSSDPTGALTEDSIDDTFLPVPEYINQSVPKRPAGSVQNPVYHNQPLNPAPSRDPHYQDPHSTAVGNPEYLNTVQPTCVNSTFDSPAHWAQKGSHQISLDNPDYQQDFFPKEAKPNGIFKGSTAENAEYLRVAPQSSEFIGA

Row | SMILES | pIC50
1 | Cn1c(=O)c(-c2c(Cl)cccc2Cl)cc2cnc(N)nc21 | 5.25
2 | Brc1cccc(Nc2ccnc3ccccc23)c1 | 5.26
3 | Clc1cccc(Nc2ncnc3[nH]nc(Nc4cccc(Cl)c4)c23)c1 | 7.08
4 | Cc1[nH]c2ncnc(Nc3cccc(C(=O)O)c3)c2c1C | 4.79
5 | CCN(CC)CCOc1ccc(Nc2ncc3cc(-c4c(Cl)cccc4Cl)c(NC(=O)NC(C)(C)C)nc3n2)cc1 | 7.62
6 | Brc1cccc(Nc2nccc3ccccc23)c1 | < 4.00
7 | CN(C)c1ncc2cc(-c3c(Cl)cccc3Cl)c(=O)n(C)c2n1 | 4.30
8 | COc1cc2nc(N)nc(Nc3cccc(Br)c3)c2cc1OC | 6.33
9 | Brc1cccc(Nc2ncnc3ccccc23)c1 | 7.57
10 | Cc1[nH]c2ncnc(Nc3cccc(O)c3)c2c1C | 5.90
11 | Cc1[nH]c2ncnc(Nc3cccc(Br)c3)c2c1C | 7.57
12 | COc1cc2nc(C)nc(Nc3cccc(Br)c3)c2cc1OC | < 5.00

Stronger by pIC50, values ahead:

Row | pIC50 | SMILES
13 | > 8.30 | Nc1ccc(-c2cc3c(Nc4cccc(Cl)c4)ncnc3[nH]2)cc1
14 | > 8.30 | Oc1ccc(-c2cc3c(Nc4cccc(Cl)c4)ncnc3[nH]2)cc1
15 | > 8.30 | O=C(O)c1ccc(-c2cc3c(Nc4cccc(Cl)c4)ncnc3[nH]2)cc1
16 | > 8.30 | Oc1cccc(-c2cc3c(Nc4cccc(Cl)c4)ncnc3[nH]2)c1
17 | > 8.30 | Nc1cccc(-c2cc3c(Nc4cccc(Cl)c4)ncnc3[nH]2)c1
18 | 8.00 | Cc1c(-c2ccccc2)[nH]c2ncnc(Nc3cccc(Cl)c3)c12
19 | > 8.30 | CCOC(=O)c1ccc(-c2cc3c(Nc4cccc(Cl)c4)ncnc3[nH]2)cc1

— the Kinase Knowledgebase extract (Sharma et al. 2016)
